# Measurements as given in patent US7495027B2, “3-aryl-4-hydroxyfuranone compounds and the human and animal health use thereof” (Wyeth, priority 2003, dated 2009).
# pIC50: −log10 of the molar value. Read-outs that look alike come from different tables or passages of the source.
# Columns and labels:
# [1] = biological target: E. coli Uridine-diphosphate-N-acetvimuramoyl: L-alanine lipase, MurC (Escherichia coli, UniProt P17952); assay: Inhibitory activity against MurC (E. coli); type: biochemical; settings: (E) E. coli enzyme; read-out: MurC IC50 (converted)
# Sequence of E. coli Uridine-diphosphate-N-acetvimuramoyl: L-alanine lipase, MurC (P17952 whole entry): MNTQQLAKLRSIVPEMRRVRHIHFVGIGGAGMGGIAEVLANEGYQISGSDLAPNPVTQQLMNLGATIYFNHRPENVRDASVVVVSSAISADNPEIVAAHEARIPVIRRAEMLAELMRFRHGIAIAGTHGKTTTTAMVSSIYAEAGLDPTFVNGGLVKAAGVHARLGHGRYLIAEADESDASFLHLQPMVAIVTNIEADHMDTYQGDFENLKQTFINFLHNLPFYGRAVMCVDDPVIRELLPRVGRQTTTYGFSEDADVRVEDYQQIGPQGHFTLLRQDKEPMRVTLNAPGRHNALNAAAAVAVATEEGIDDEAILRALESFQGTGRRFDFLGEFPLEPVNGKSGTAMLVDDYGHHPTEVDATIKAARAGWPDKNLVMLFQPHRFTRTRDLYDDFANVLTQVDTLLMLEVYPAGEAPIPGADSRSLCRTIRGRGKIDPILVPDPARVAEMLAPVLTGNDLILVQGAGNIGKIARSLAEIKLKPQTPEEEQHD
# [2] = system: Streptococci; assay: Minimum inhibitory concentration, microdilution broth method, streptococci; type: cell-based; settings: Mueller-Hinton broth with 5% horse blood, 18-22 hours at 35° C.; for MIC: S. pneumo GC 1894
# Outline: (§1)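 Recent clinical isolates, some resistant to methicillin, penicillin and/or vancomycin, were tested by the broth microdilution method of NCCLS Approved Standard M7-A5 2000. Mueller-Hinton broth served for staphylococci and enterococci, while streptococci received the same broth supplemented with 5% horse blood.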
# [3] = biological target: E. coli Uridine-diphosphate-N-acetylmuramoyl-L-alanine: D-glutamate liease, MurD (Escherichia coli, UniProt P14900); assay: biochemical; settings: (E) E. coli enzyme
# Sequence of E. coli Uridine-diphosphate-N-acetylmuramoyl-L-alanine: D-glutamate liease, MurD (P14900 whole entry): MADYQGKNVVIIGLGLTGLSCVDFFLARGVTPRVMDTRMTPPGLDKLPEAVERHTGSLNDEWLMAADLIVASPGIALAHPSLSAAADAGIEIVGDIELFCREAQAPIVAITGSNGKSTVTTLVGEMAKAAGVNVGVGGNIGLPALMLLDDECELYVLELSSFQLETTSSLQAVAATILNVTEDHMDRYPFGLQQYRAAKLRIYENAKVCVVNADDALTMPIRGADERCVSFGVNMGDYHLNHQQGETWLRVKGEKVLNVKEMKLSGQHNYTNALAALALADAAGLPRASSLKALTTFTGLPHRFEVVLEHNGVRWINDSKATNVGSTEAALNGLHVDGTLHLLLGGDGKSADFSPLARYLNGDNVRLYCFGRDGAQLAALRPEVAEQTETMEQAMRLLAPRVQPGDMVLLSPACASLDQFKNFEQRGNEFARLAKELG
# Outline: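 Final buffer 83 mM Tris/HCl pH 8.0, 50 mM MgCl2, 2 mM ATP. Compounds from 10 mg/mL DMSO stocks diluted to 100 μg/mL in 50 mM Tris/HCl pH 8.5 (working solution, not final assay level).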
# [4] = biological target: T1, S. aureus Uridine-diphosphate-N-acetylmuramoyl-L-alanine: D-glutamate liease, MurD (Staphylococcus aureus, UniProt Q2FZ92); assay: biochemical; settings: (S) S. aureus enzyme
# T1 sequence (Q2FZ92 1-449): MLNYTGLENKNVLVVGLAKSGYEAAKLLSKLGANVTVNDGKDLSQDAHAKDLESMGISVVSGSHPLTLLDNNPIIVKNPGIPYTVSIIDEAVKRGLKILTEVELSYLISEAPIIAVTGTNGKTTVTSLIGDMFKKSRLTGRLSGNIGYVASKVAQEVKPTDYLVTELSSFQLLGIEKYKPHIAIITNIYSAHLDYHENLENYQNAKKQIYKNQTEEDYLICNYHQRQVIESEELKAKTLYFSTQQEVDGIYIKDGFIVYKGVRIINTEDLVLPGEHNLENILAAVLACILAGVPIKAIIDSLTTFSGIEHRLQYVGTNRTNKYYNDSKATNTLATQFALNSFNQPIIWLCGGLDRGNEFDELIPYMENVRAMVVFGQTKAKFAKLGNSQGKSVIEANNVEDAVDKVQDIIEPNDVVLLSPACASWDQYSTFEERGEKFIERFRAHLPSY
# Outline: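 MurD, which catalyses the fourth step of cell wall biosynthesis, was tested for inhibition by compounds. Compounds were made up as 10 mg/mL DMSO stocks and diluted to 100 μg/mL in 50 mM Tris/HCl, pH 8.5.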
# [5] = biological target: E. coli UDP-N-acetylglucosamine enolpyruvoyl transferase, MurA (Escherichia coli, UniProt P0A749); assay: biochemical; settings: (E) E. coli enzyme
# Sequence of E. coli UDP-N-acetylglucosamine enolpyruvoyl transferase, MurA (P0A749 whole entry): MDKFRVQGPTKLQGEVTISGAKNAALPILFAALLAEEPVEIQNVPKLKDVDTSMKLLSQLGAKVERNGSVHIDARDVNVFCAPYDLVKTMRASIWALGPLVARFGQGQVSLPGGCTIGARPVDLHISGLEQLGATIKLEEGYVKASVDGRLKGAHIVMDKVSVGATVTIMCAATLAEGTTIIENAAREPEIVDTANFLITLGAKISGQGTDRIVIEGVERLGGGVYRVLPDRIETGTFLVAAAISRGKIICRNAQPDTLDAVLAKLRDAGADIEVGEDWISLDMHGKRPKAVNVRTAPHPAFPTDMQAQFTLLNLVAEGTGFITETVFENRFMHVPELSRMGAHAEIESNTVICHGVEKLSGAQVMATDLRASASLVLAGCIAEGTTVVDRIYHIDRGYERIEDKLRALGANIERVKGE
# Outline: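 Compound in DMSO/water pre-incubated 10 min at 37° C with enzyme in 50 mM Tris/HCl pH 8.0, 5 mM DTT, 20% glycerol. After Tris/BME and assay buffer were added, OD340 was read at start. Reaction ran 1 hr at 37° C, then stop solution was added with 30 min colour development.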
# [6] = biological target: E. coli Enopyruvyl-UPD-N-acetylglucosamine reductase, Mur B (Escherichia coli, UniProt P08373); assay: biochemical; settings: (E) E. coli enzyme; read-out: MurB IC50 (converted)
# Sequence of E. coli Enopyruvyl-UPD-N-acetylglucosamine reductase, Mur B (P08373 whole entry): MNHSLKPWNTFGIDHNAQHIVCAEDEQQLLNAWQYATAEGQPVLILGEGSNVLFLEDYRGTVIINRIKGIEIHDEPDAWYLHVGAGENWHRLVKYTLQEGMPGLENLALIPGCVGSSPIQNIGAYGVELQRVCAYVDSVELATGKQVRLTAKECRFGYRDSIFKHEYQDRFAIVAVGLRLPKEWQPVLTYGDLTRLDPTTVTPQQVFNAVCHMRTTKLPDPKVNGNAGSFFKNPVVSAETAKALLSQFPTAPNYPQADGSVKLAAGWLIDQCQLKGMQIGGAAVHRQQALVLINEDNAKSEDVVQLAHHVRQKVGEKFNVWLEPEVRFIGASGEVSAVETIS
# [7] = system: staphylococci; assay: Minimum inhibitory concentration, microdilution broth method, staphylococci; type: cell-based; settings: Mueller-Hinton broth, 18-22 hours at 35° C.; for MIC: Staphylococcus aureus
# Outline: as §1
# [8] = system: enterococci; assay: Minimum inhibitory concentration, microdilution broth method, enterococci; type: cell-based; settings: Mueller-Hinton broth, 18-22 hours at 35° C.; for MIC: Enterococcus faecalis
# Outline: as §1
# [9] = system: Trichostrongylus columbriformis; assay: In vivo efficacy against T. colubriformis in infected gerbils; settings: gerbils infected with T. colubriformis; single oral dose of 50 mg/kg by gavage; worm counts four days post-treatment; % mortality as compared to negative control
# Outline: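 Gerbils infected with ~800 L3/mL larvae were treated one week later by gavage with a single 50 mg/kg oral dose in PEG 400:DMSO (1:2 v/v), 3 animals per group. Necropsy four days post-treatment, with worms counted under stereoscopes.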
# [10] = system: C. elegans; assay: Efficacy against nematodes (C. elegans motility rating); design: key: 0: no effect; 7: reduced movement in 24 h; 8: dead in 24 h; 9: dead in 4 h; settings: observations at 4 h and 24 h postimmersion
# Outline: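 Mixed-stage C. elegans (~50 per well, L1 to adult) in M9 buffer exposed to test compound at 100 ppm, 150 ppm or 200 μM final. Motility of larvae and adults scored under dissecting microscope at 4 h and 24 h.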
# [11] = Toxicity in treated gerbils (deaths or significant weight loss); type: in vivo; design: key: +: Toxicity is indicated for those groups having one or more animals expired; settings: single oral dose of 50 mg/kg, groups of 3
# Protocol: In this evaluation, gerbils are infected with Trichostrongylus columbriformis infective larvae at a concentration of approximately 800 L3/mL. Larvae for gerbil infections are cultured from feces from sheep previously infected with T. colubriformis. One week post infection, test compounds are administered by gavage as a single oral dose of 50 mg/kg of body weight. For each group of 3 gerbils, 10 mg of test compound are dissolved in 2 mL of PEG 400:DMSO (1:2 v/v) and each animal is administered the test solution at a rate of 0.1 mL/10 g of body weight. […] All animals are observed daily for morbidity and mortality. Four days post-treatment, all animals are weighed and necropsied. Worm counts are conducted with the use of stereoscopes and counters.
# [12] = S. aureus GC 1131, read-out: MIC S. aureus GC 1131
# [13] = S. aureus GC 4543, read-out: MIC S. aureus GC 4543
# [14] = E. faecalis GC 2242, read-out: MIC E. faecalis GC 2242
# [15] = E. faecalis GC 4555, read-out: MIC E. faecalis GC 4555
Structure (SMILES),IC50 [1] [µM],melting point [°C],pIC50 [3],pIC50 [5],IC50 [6] [µM],Mortality [9] [%],Toxicity [11],further results
O=C1O/C(=C\c2ccc(-c3ccccc3)cc2)C(O)=C1c1ccc(Cl)c(Cl)c1 [Example 66],7.33,265 to 269,4.29,5.13,4.89,–,–,"MIC [2]: < 0.125 µg/mL; pIC50 [4]: 4.91; MIC [7, 12]: 2 µg/mL; MIC [7, 13]: 1 µg/mL; MIC [8, 14]: 0.5 µg/mL; MIC [8, 15]: 2 µg/mL"
O=C1O/C(=C\c2cccc(C(F)(F)F)c2)C(O)=C1c1cccc(-c2ccccc2)c1 [Example 108],14.7,210 to 212,< 4.21,4.33,24.5,–,–,"MIC [2]: 1 µg/mL; pIC50 [4]: 4.43; MIC [7, 12]: 2 µg/mL; MIC [7, 13]: 2 µg/mL; MIC [8, 14]: 2 µg/mL; MIC [8, 15]: 8 µg/mL"
O=C1OC(=Cc2ccc(F)cc2)C(O)=C1c1ccc(Cl)cc1 (mixture of isomers) [R=H; R1=4-Cl—C6H4**; R2=4-F—C6H4],–,–,–,–,–,72.60,+,Rating ([10]; dose 100 ppm): 9
O=C1OC(=Cc2ccc(F)cc2)C(O)=C1c1ccc(C(F)(F)F)cc1 (mixture of isomers) [R=H; R1=4-CF3—C6H4**; R2=4-F—C6H4],–,–,–,–,–,95.80,+,Rating ([10]; dose 100 ppm): 9
O=C1O/C(=C\c2ccc(-c3ccccc3)cc2)C(O)=C1c1cc(Cl)cc(Cl)c1 [Example 68],22,232 to 235,4.57,5.13,7.33,–,–,MIC S. pneumo GC 1894 [2]: <0.125 µg/mL; pIC50 [4]: 4.57; MIC S. aureus GC 1131 ([7]; S. aureus GC 1131): 2 µg/mL; MIC S. aureus GC 4543 ([7]; S. aureus GC 4543): 2 µg/mL; MIC E. faecalis GC 2242 ([8]; E. faecalis GC 2242): 1 µg/mL; MIC E. faecalis GC 4555 ([8]; E. faecalis GC 4555): 2 µg/mL
N#Cc1ccc(C2=C(O)C(=Cc3ccc(-c4ccc(Cl)cc4)cc3)OC2=O)cc1 [R=H; R1=4-CN—C6H4; R2=4-(4′-Cl-biphenyl)],–,–,–,–,–,64.33,+,–
O=C1OC(=Cc2ccc(C(F)(F)F)cc2)C(O)=C1c1ccc(OC(F)(F)F)cc1 (mixture of isomers) [R=H; R1=4-OCF3—C6H4**; R2=4-CF3—C6H4],–,–,–,–,–,55.50,+,Rating ([10]; dose 100 ppm): 9
O=C1O/C(=C\c2ccc(Cl)cc2)C(O)=C1c1ccc(Cl)cc1 [R=H; R1=4-Cl—C6H4; R2=4-Cl—C6H4],–,–,–,–,–,79.78,+,Rating ([10]; dose 150 ppm): 9
O=C1O/C(=C\c2ccc(-c3ccccc3)cc2)C(O)=C1c1ccc(Cl)cc1 [R=H; R1=4-Cl—C6H4; R2=4-biphenyl],–,–,–,–,–,33.10,+,–
"O=C1O/C(=C\c2ccc(-c3ccccc3)cc2)C(O)=C1c1cc(C(F)(F)F)cc(C(F)(F)F)c1 [R=H; R1=3,5-diCF3—C6H3; R2=4-biphenyl]",–,–,–,–,–,60.80,+,Rating ([10]; dose 150 ppm): 9
COc1cc(/C=C2\OC(=O)C(c3cccc(Cl)c3)=C2O)ccc1-c1ccccc1C(F)(F)F,–,–,–,–,–,29.50,+,–
"O=C1OC(=Cc2ccc(Cl)c(Cl)c2)C(O)=C1c1ccc(OC(F)(F)F)cc1 (mixture of isomers) [R=H; R1=4-OCF3—C6H4**; R2=3,4-diCl—C6H3]",–,–,–,–,–,100.0,+,Rating ([10]; dose 100 ppm): 9
N#Cc1ccc(C2=C(O)/C(=C/c3ccc(-c4ccc(C#N)cc4)cc3)OC2=O)cc1 [R=H; R1=4-CN—C6H4; R2=4-(4′CN-biphenyl)],–,–,–,–,–,88.60,+,–
N#Cc1ccc(C2=C(O)C(=Cc3ccc(OC(F)(F)F)cc3)OC2=O)cc1 (mixture of isomers) [R=H; R1=4-CN—C6H4**; R2=4-OCF3—C6H4],–,–,–,–,–,90.00,+,Rating ([10]; dose 100 ppm): 9
N#Cc1ccc(C2=C(O)C(=Cc3ccc(Cl)cc3)OC2=O)cc1 [R=H; R1=4-CN—C6H4; R2=4-Cl—C6H4],–,–,–,–,–,90.20,+,–
N#Cc1ccc(C=C2OC(=O)C(c3ccc(OC(F)(F)F)cc3)=C2O)cc1 (mixture of isomers) [R=H; R1=4-OCF3—C6H4**; R2=4-CN—C6H4],–,–,–,–,–,88.90,+,Rating ([10]; dose 100 ppm): 9
COc1ccc(C2=C(O)/C(=C/c3ccc(-c4ccccc4)cc3)OC2=O)cc1 [Example 9],> 67.5,266 to 269,< 4.17,< 4.17,43.2,–,–,"MIC [2]: < 0.125 µg/mL; MIC [7, 12]: 32 µg/mL; MIC [7, 13]: > 128 µg/mL; MIC [8, 14]: 8 µg/mL; MIC [8, 15]: 64 µg/mL"
N#Cc1ccc(/C=C2\OC(=O)C(c3ccc(Cl)cc3)=C2O)cc1 [R=H; R1=4-Cl—C6H4; R2=4-CN—06H4],–,–,–,–,–,84.54,+,–
Cc1ccc(/C=C2\OC(=O)C(c3cccc(C(F)(F)F)c3)=C2O)s1 [Example 12],42.6,249 to 251,< 4.15,< 4.15,> 71,–,–,"MIC [2]: 2 µg/mL; MIC [7, 12]: 64 µg/mL; MIC [7, 13]: 64 µg/mL; MIC [8, 14]: 64 µg/mL; MIC [8, 15]: > 128 µg/mL"
N#Cc1ccc(/C=C2\OC(=O)C(c3ccc(C#N)cc3)=C2O)cc1 [R=H; R1=4-CN—C6H4; R2=4-CN—C6H4],–,–,–,–,–,62.43,+,–
O=C1O/C(=C\c2ccccc2C(F)(F)F)C(O)=C1c1ccc(-c2ccccc2)c(F)c1 [Example 107],14.1,224 to 228,< 4.23,4.48,9.38,–,–,"MIC [2]: 0.25 µg/mL; pIC50 [4]: 4.40; MIC [7, 12]: 4 µg/mL; MIC [7, 13]: 2 µg/mL; MIC [8, 14]: 2 µg/mL; MIC [8, 15]: 8 µg/mL"
O=C1O/C(=C\c2ccc(-c3ccccc3)cc2)C(O)=C1c1ccc(Cl)cc1Cl [Example 65],7.33,252 to 256,4.23,< 4.21,24.4,–,–,"MIC [2]: < 0.125 µg/mL; pIC50 [4]: 4.44; MIC [7, 12]: 8 µg/mL; MIC [7, 13]: 8 µg/mL; MIC [8, 14]: 4 µg/mL; MIC [8, 15]: 16 µg/mL"
